Activity, Kd and IC50 data for 18 molecules are collected here from ChEMBL document CHEMBL3763029, “Heptapeptide ligands against receptor-binding sites of influenza hemagglutinin toward anti-influenza therapy” (Bioorg Med Chem, 2016).

In test [1] the test system is Influenza A virus (A/Wyoming/03/2003(H3N2)). The test is described as follows: (§1) Binding affinity to Influenza A virus (A/Wyoming/03/2003(H3N2)) H3 hemagglutinin after 2 hrs by avidin-biotin-peroxidase complex method.
For test [2] the test system is unchanged. Kind of test: Binding affinity to Influenza A virus (A/Wyoming/03/2003(H3N2)) H3 hemagglutinin at 400 uM after 2 hrs by avidin-biotin-peroxidase complex method relative to 7-1 peptide.
Test [3] in a line: as §1.
Test [4] relates to Influenza A virus (A/New Caledonia/20/1999(H1N1)). Kind of test: (§2) Binding affinity to Influenza A virus (A/New Caledonia/20/99 (H1N1)) H1 hemagglutinin after 2 hrs by avidin-biotin-peroxidase complex method.
Test [5] is described as follows: as §2. Also noted: species or system Influenza A virus (A/New Caledonia/20/1999(H1N1)).
Test [6] has as its system Influenza A virus (A/Wyoming/03/2003(H3N2)). The test is described as follows: Binding affinity to Influenza A virus (A/Wyoming/03/2003(H3N2)) H3 hemagglutinin at 200 uM after 2 hrs by avidin-biotin-peroxidase complex method in presence of Neu5Ac.
Test [7] is described as follows: Binding affinity to Influenza A virus (A/Aichi/2/68(H3N2)) H3 hemagglutinin after 2 hrs by NMR method. Details: species or system Influenza A virus (A/Aichi/2/1968(H3N2)).
The next test has as its system H3N2 subtype. Kind of test: Antiviral activity against Influenza A virus (A/Aichi/2/68(H3N2)) infected in MDCK cells assessed as inhibition of plaque formation pretreated with virus for 30 mins followed by host cell infection for 30 mins measured after 2 days by crystal violet staining assay. In kind it is functional, organism-based. Conditions: A/Aichi/2/1968(H3N2).

In a further test the test system is Influenza A virus. Kind of test: Antiviral activity against Influenza A virus (A/Puerto Rico/8/34(H1N1)) infected in MDCK cells assessed as inhibition of plaque formation pretreated with virus for 30 mins followed by host cell infection for 30 mins measured after 2 days by crystal violet staining assay. In kind it is functional, organism-based. Conditions: A/Puerto Rico/8/1934(H1N1).

In test [8] the test system is Influenza A virus (A/Wyoming/03/2003(H3N2)). Kind of test: Binding affinity to Influenza A virus (A/Wyoming/03/2003(H3N2)) H3 hemagglutinin after 2 hrs by avidin-biotin-peroxidase complex method in presence of glucose.
Test [9] has the same test system. The test is described as follows: Binding affinity to Influenza A virus (A/Wyoming/03/2003(H3N2)) H3 hemagglutinin after 2 hrs by avidin-biotin-peroxidase complex method in presence of Neu5Ac.

Calls of active or inactive are those of the source. The calls are words filed in the database; no cut-off is given here. Peptide text beside a SMILES is read from it. * marks the point of attachment. Biotinyl(3aR,4S,6aS) = O=C1N[C@H]2[C@H](CCCCC(=O)*)SC[C@H]2N1; Biotin = O=C1N[C@H]2[C@H](CS[C@H]2CCCCC(=O)*)N1; Stearoyl = CCCCCCCCCCCCCCCCCC(=O)*

For the molecule `CC(C)C[C@H](NC(=O)[C@H](C)NC(=O)[C@H](CC(C)C)NC(=O)[C@@H]1CCCN1C(=O)[C@H](CCCNC(=N)N)NC(=O)[C@@H](NC(=O)[C@@H](N)CC(=O)O)C(C)C)C(=O)N[C@@H](CCCCNC(=O)CCCC[C@@H]1SC[C@H]2NC(=O)N[C@@H]12)C(N)=O` (H-DVRPLALK(Biotinyl(3aR,4S,6aS))-NH2), the result in test [1] was Active.

Take `CC(C)C[C@H](NC(=O)[C@H](CC(=O)O)NC(=O)[C@H](CC(C)C)NC(=O)[C@@H]1CCCN1C(=O)[C@H](CCCNC(=N)N)NC(=O)[C@@H](NC(=O)[C@@H](N)CC(C)C)C(C)C)C(=O)N[C@@H](CCCCNC(=O)CCCC[C@@H]1SC[C@H]2NC(=O)N[C@@H]12)C(N)=O` (H-LVRPLDLK(Biotinyl(3aR,4S,6aS))-NH2): in test [1], the outcome was Active.

Consider `CC(C)C[C@H](NC(=O)CNC(=O)[C@H](CCCNC(=N)N)NC(=O)[C@@H](NC(=O)[C@@H](N)CC(C)C)C(C)C)C(=O)N[C@@H](C)C(=O)N[C@@H](CC(C)C)C(=O)N[C@@H](CCCCNC(=O)CCCC[C@@H]1SC[C@H]2NC(=O)N[C@@H]12)C(N)=O` (H-LVRGLALK(Biotinyl(3aR,4S,6aS))-NH2), for which the Activity in test [2] was determined as 17%.

Usually Kd stands for the constant that tells how readily two partners part at equilibrium. On to `CC(C)C[C@H](NC(=O)[C@H](C)NC(=O)[C@H](CC(C)C)NC(=O)[C@@H]1CCCN1C(=O)[C@H](CCCNC(=N)N)NC(=O)[C@@H](NC(=O)[C@@H](N)CC(C)C)C(C)C)C(=O)N[C@@H](CCCCNC(=O)CCCC[C@@H]1SC[C@@H]2NC(=O)N[C@@H]21)C(N)=O` (H-LVRPLALK(Biotin)-NH2), for which the Activity result in test [1] and in test [4] was “Dose-dependent effect” each time. Also, the values for the dissociation constant Kd in test [3] and in test [5] were 194 µM and 92 µM, respectively. The outcome in test [6] was inactive.

Regarding `CC(=O)N[C@H]1[C@H]([C@H](O)[C@H](O)CO)O[C@@](O[C@H]2[C@@H](O)[C@@H](CO)O[C@@H](O[C@H]3[C@H](O)[C@@H](O)[C@H](O)O[C@@H]3CO)[C@@H]2O)(C(=O)O)C[C@@H]1O`, the equilibrium dissociation constant (Kd) in test [7] was 3200 µM; in test [3], over 400 µM; in [5], over 200 µM.

`CC(C)C[C@H](NC(=O)[C@H](C)NC(=O)[C@H](CC(C)C)NC(=O)[C@@H]1CCCN1C(=O)[C@H](CC(=O)O)NC(=O)[C@@H](NC(=O)[C@@H](N)CC(C)C)C(C)C)C(=O)N[C@@H](CCCCNC(=O)CCCC[C@@H]1SC[C@H]2NC(=O)N[C@@H]12)C(N)=O` (H-LVDPLALK(Biotinyl(3aR,4S,6aS))-NH2) yielded an Activity in test [2] of 19%.

In general, IC50 refers to the concentration at which inhibition is half-maximal. For the molecule `CCCCCCCCCCCCCCCCCC(=O)N[C@@H](CC(C)C)C(=O)N[C@H](C(=O)N[C@@H](CCCNC(=N)N)C(=O)N1CCC[C@H]1C(=O)N[C@@H](CC(C)C)C(=O)N[C@@H](C)C(=O)N[C@@H](CC(C)C)C(N)=O)C(C)C` (Stearoyl-LVRPLAL-NH2), the figures for the IC50 in the test on H3N2 subtype and with Influenza A virus were 6.4 µM and 101 µM, respectively.

As for `CC(C)C[C@H](NC(=O)[C@H](C)NC(=O)[C@H](CC(C)C)NC(=O)[C@@H]1CCCN1C(=O)[C@H](CCCNC(=N)N)NC(=O)[C@@H](NC(=O)[C@H](C)N)C(C)C)C(=O)N[C@@H](CCCCNC(=O)CCCC[C@@H]1SC[C@H]2NC(=O)N[C@@H]12)C(N)=O` (H-AVRPLALK(Biotinyl(3aR,4S,6aS))-NH2), the outcome in test [8] was Active. Besides, in test [9], the outcome was inactive.

With `CC(C)C[C@H](NC(=O)[C@H](C)NC(=O)[C@H](C)NC(=O)[C@@H]1CCCN1C(=O)[C@H](CCCNC(=N)N)NC(=O)[C@@H](NC(=O)[C@@H](N)CC(C)C)C(C)C)C(=O)N[C@@H](CCCCNC(=O)CCCC[C@@H]1SC[C@H]2NC(=O)N[C@@H]12)C(N)=O` (H-LVRPAALK(Biotinyl(3aR,4S,6aS))-NH2), in test [8], the result was Active. For the same molecule, the result in test [9] was inactive.

Consider `CC(C)C[C@H](NC(=O)[C@H](C)NC(=O)[C@H](CC(C)C)NC(=O)[C@H](Cc1cnc[nH]1)NC(=O)[C@H](CCCNC(=N)N)NC(=O)[C@@H](NC(=O)[C@@H](N)CC(C)C)C(C)C)C(=O)N[C@@H](CCCCNC(=O)CCCC[C@@H]1SC[C@H]2NC(=O)N[C@@H]12)C(N)=O` (H-LVRHLALK(Biotinyl(3aR,4S,6aS))-NH2), for which, in test [1], the outcome was Active.

Regarding `CC(C)C[C@H](NC(=O)[C@H](C)NC(=O)[C@H](CC(C)C)NC(=O)[C@@H]1CCCN1C(=O)[C@H](C)NC(=O)[C@@H](NC(=O)[C@@H](N)CC(C)C)C(C)C)C(=O)N[C@@H](CCCCNC(=O)CCCC[C@@H]1SC[C@H]2NC(=O)N[C@@H]12)C(N)=O` (H-LVAPLALK(Biotinyl(3aR,4S,6aS))-NH2), the outcome in test [1] was inactive.

Consider `CC(C)C[C@H](NC(=O)[C@H](C)NC(=O)[C@H](CC(C)C)NC(=O)[C@@H]1CCCN1C(=O)[C@H](Cc1cnc[nH]1)NC(=O)[C@@H](NC(=O)[C@@H](N)CC(C)C)C(C)C)C(=O)N[C@@H](CCCCNC(=O)CCCC[C@@H]1SC[C@H]2NC(=O)N[C@@H]12)C(N)=O` (H-LVHPLALK(Biotinyl(3aR,4S,6aS))-NH2), for which the outcome in [1] was Active.

`CC(C)C[C@H](NC(=O)[C@H](C)NC(=O)[C@H](Cc1c[nH]c2ccccc12)NC(=O)[C@@H]1CCCN1C(=O)[C@H](CCCNC(=N)N)NC(=O)[C@@H](NC(=O)[C@@H](N)CC(C)C)C(C)C)C(=O)N[C@@H](CCCCNC(=O)CCCC[C@@H]1SC[C@H]2NC(=O)N[C@@H]12)C(N)=O` (H-LVRPWALK(Biotinyl(3aR,4S,6aS))-NH2): the result in test [1] was Active.

Regarding `CC(C)C[C@H](NC(=O)[C@H](C)NC(=O)[C@H](CC(C)C)NC(=O)[C@@H]1CCCN1C(=O)[C@H](CCCNC(=N)N)NC(=O)[C@H](C)NC(=O)[C@@H](N)CC(C)C)C(=O)N[C@@H](CCCCNC(=O)CCCC[C@@H]1SC[C@H]2NC(=O)N[C@@H]12)C(N)=O` (H-LARPLALK(Biotinyl(3aR,4S,6aS))-NH2), the result in [8] was Active. The outcome in test [9] was inactive.

`CC(C)C[C@H](NC(=O)[C@H](C)NC(=O)[C@H](CCCNC(=N)N)NC(=O)[C@@H](NC(=O)[C@@H](N)CC(C)C)C(C)C)C(=O)N[C@@H](C)C(=O)N[C@@H](CC(C)C)C(=O)N[C@@H](CCCCNC(=O)CCCC[C@@H]1SC[C@H]2NC(=O)N[C@@H]12)C(N)=O` (H-LVRALALK(Biotinyl(3aR,4S,6aS))-NH2): the result in test [1] was inactive.

For the molecule `CC(C)C[C@H](NC(=O)[C@H](C)NC(=O)[C@H](CC(C)C)NC(=O)[C@@H]1CCCN1C(=O)[C@H](CCCNC(=N)N)NC(=O)[C@H](CCC(N)=O)NC(=O)[C@@H](N)CC(C)C)C(=O)N[C@@H](CCCCNC(=O)CCCC[C@@H]1SC[C@H]2NC(=O)N[C@@H]12)C(N)=O` (H-LQRPLALK(Biotinyl(3aR,4S,6aS))-NH2), in [1], the result was Active.

In the case of `CC(=O)N[C@H]1[C@H]([C@H](O)[C@H](O)CO)O[C@@](OC[C@H]2O[C@@H](O[C@H]3[C@H](O)[C@@H](O)[C@H](O)O[C@@H]3CO)[C@H](O)[C@@H](O)[C@H]2O)(C(=O)O)C[C@@H]1O`, the Kd was 2100 µM in test [7], over 500 µM in test [3] and over 500 µM in test [5].

Consider `CC(C)C[C@H](NC(=O)[C@@H]1CCCN1C(=O)[C@H](CCCNC(=N)N)NC(=O)[C@@H](NC(=O)[C@@H](N)CC(C)C)C(C)C)C(=O)N[C@@H](C)C(=O)N[C@@H](C)C(=O)N[C@@H](CCCCNC(=O)CCCC[C@@H]1SC[C@H]2NC(=O)N[C@@H]12)C(N)=O` (H-LVRPLAAK(Biotinyl(3aR,4S,6aS))-NH2), for which, in [8], the result was Active. Also, the result in test [9] was inactive.
